Measurements as given in publication PMC7015555, “Transthyretin-Binding Activity of Complex Mixtures Representing the Composition of Thyroid-Hormone Disrupting Contaminants in House Dust and Human Serum” (Environmental Health Perspectives, 2020).
Like-named read-outs stand apart in the source and are kept apart here.

Experiments:
TTR [1] = target: TTR (Homo sapiens, UniProt P02766); experiment: FITC-T4 TTR competitive binding assay; details: for REP (relative potency compared to T4): IC20 of T4 / IC20 of compound (Equation 14); for T4EQ concentration (nmol/g dust): reported concentration of the compound in SRM2585 dust x REP; for inhibition of FITC-T4-TTR-binding: present study (Figure 1C); for maximum competitive potency at high test concentrations: Figure 1C
TTR [2] = details: cited from earlier work; for IC50: read-out: IC50 (M), Radioactive Ligand Binding Assay data from the literature; for REP, Radioactive Ligand Binding Assay data from the literature: relative effect potency; for T4-TTR binding inhibition in the RLBA: at 10 µM (highest concentration)
[3] = inhibitor-TTR dissociation constant converted from IC20 (Equation 4), 4°C, read-out: Ki
[4] = 20% inhibition of FITC-T4 binding to TTR, 30 nM TTR, 110 nM FITC-T4, 2 h at 4°C, pH 8.0
[5] = individual compounds, 30 nM TTR, 110 nM FITC-T4, 2 h at 4°C, pH 8.0, — = 50% inhibition level not reached (footnote g), read-out: IC50

SMILES | Ki (TTR [1]) | REP (relative potency compared to T4) (TTR [1]) | IC20 (TTR [1]; pH 8) | IC50 (TTR [1]; read-out: IC50) | T4EQ concentration (nmol/g dust) (TTR [1]) | IC50 (TTR [2]; ref Weiss et al. 2015) | REP, Radioactive Ligand Binding Assay data from the literature (TTR [2]; ref Weiss et al. 2015) | Ki (TTR [1]; [3]) | IC20 (TTR [1]; [4]) | IC50 (TTR [1]; [5]) | also measured
O=C(O)C(F)(F)C(F)(F)C(F)(F)C(F)(F)C(F)(F)C(F)(F)F [PFHpA, perfluoroheptanoic acid] | 640 nM | 0.071 | 300 nM | 1200 nM | 0.048 nmol/g dust | 1.57e-06 M | 0.039 |  |  |  | 
Clc1ccc(-c2cc(Cl)c(Cl)cc2Cl)cc1Cl [CB-118, 2,3ʹ,4,4ʹ,5-pentachlorobiphenyl] |  | 0.14 | 160 nM | 560 nM | 0.011 nmol/g dust |  |  | 320 nM |  |  | inhibition of FITC-T4-TTR-binding (TTR [1]): > 20%; T4-TTR binding inhibition in the RLBA (TTR [2]; ref Hamers et al. 2011): <20% inhibition at 10 µM (Hamers et al. 2011)
Clc1cc(Cl)c(-c2cc(Cl)c(Cl)cc2Cl)cc1Cl [CB-153, 2,2ʹ,4,4ʹ,5,5ʹ-hexachlorobiphenyl] | 150 nM | 0.27 | 77 nM | 180 nM | 0.030 nmol/g dust | > 1.5e-05 M | <0.0037 |  |  |  | maximum competitive potency at high test concentrations (TTR [1]): leveled off before reaching complete inhibition; REP, Radioactive Ligand Binding Assay data from the literature (TTR [2]; ref Hamers et al. (2011)): <0.0037; pIC50 in the RLBA (TTR [2]; –log(IC50), ref Excel Table S1): < 4.8
NS(=O)(=O)C(F)(F)C(F)(F)C(F)(F)C(F)(F)C(F)(F)C(F)(F)C(F)(F)C(F)(F)F [FOSA, perfluorooctane sulfonamide] |  | 0.11 | 190 nM | 730 nM | 0.002 nmol/g dust | 6.12e-06 M | 0.01 | 400 nM |  |  | 
CCCCCCCCCc1ccc(O)cc1 [4-Nonylphenol, 4-nonylphenol] | 3900 nM | 0.012 | 1800 nM | 16000 nM | 0.946 nmol/g dust | 1e-05 M | 0.008 |  |  |  | 
Oc1c(Cl)c(Cl)c(-c2cc(Cl)c(Cl)cc2Cl)c(Cl)c1Cl [4-OH-CB-187, 4-OH-2,2ʹ,3,4ʹ,5,5ʹ,6-heptachlorobiphenyl] |  | 2.6 |  |  |  | 1.98e-08 M | 4 | 4 nM | 8.2 nM | 17 nM | 
O=C(O)C(F)(F)C(F)(F)C(F)(F)C(F)(F)C(F)(F)C(F)(F)C(F)(F)F [PFOA, perfluorooctanoic acid] | 1100 nM | 0.043 | 490 nM | 1100 nM | 0.060 nmol/g dust | 9.49e-07 M | 0.064 |  |  |  | 
O=C(O)C(F)(F)C(F)(F)C(F)(F)C(F)(F)C(F)(F)C(F)(F)C(F)(F)C(F)(F)F [PFNA, perfluorononanoic acid] |  | 0.059 |  |  | 0.013 nmol/g dust | 2.74e-06 M | 0.022 |  | 360 nM | 1100 nM | Ki (TTR [1]; read-out: Ki): 770 nM
Oc1cc(Br)cc(Br)c1Oc1cc(Br)c(Br)cc1Br [6ʹ-OH-BDE-99, 6ʹ-OH-2,2ʹ,4,4ʹ,5-pentabromodiphenyl ether] |  | 2.5 |  |  |  |  |  | 4.5 nM | 8.4 nM | 20 nM | REP, Radioactive Ligand Binding Assay data from the literature (TTR [2]; ref Marchesini et al. 2008): 0.2
Oc1cc(Br)cc(Br)c1Oc1ccc(Br)cc1Br [6-OH-BDE-47, 6-OH-2,2ʹ,4,4ʹ-tetrabromodiphenyl ether] |  | 0.68 |  |  |  | 1.5e-07 M | 0.39 | 54 nM | 31 nM | 98 nM | 
CC(C)(c1cc(Br)c(O)c(Br)c1)c1cc(Br)c(O)c(Br)c1 [TBBPA, tetrabromo-bisphenol-A] |  | 1.5 |  |  | 0.586 nmol/g dust | 3.1e-08 M | 1.6 |  | 14 nM | 34 nM | Ki (TTR [1]; read-out: Ki): 17 nM
O=C(O)C(F)(F)C(F)(F)C(F)(F)C(F)(F)C(F)(F)C(F)(F)C(F)(F)C(F)(F)C(F)(F)F [PFDA, perfluorodecanoic acid] |  | 0.012 |  |  | 0.001 nmol/g dust | 8.95e-06 M | 0.007 |  | 1700 nM | 5400 nM | Ki (TTR [1]; read-out: Ki): 3700 nM
Brc1ccc(Oc2cc(Br)c(Br)cc2Br)c(Br)c1 [BDE-99, 2,2ʹ,4,4ʹ,5-pentabromodiphenyl ether] | 150 nM | 0.29 | 73 nM |  | 0.458 nmol/g dust |  |  |  |  |  | maximum competitive potency at high test concentrations (TTR [1]): leveled off before reaching complete inhibition; inhibition of FITC-T4-TTR-binding (TTR [1]): > 20%; T4-TTR binding inhibition in the RLBA (TTR [2]; ref Hamers et al. 2006): <20% inhibition at 10 µM (Hamers et al. 2006)
Oc1c(Cl)cc(-c2ccc(Cl)c(Cl)c2)c(Cl)c1Cl [4-OH-CB-107, 4-OH-2,3,3ʹ,4ʹ,5-pentachlorobiphenyl] |  | 0.63 |  |  |  | 2.26e-08 M | 3.5 | 59 nM | 34 nM | 68 nM | 
Oc1c(Cl)c(Cl)c(Cl)c(Cl)c1Cl [Pentachlorophenol, pentachlorophenol] | 24 nM | 1.2 | 17 nM |  |  | 2.3e-07 M | 1.74 |  |  |  | IC50 (TTR [1]): 60 nM
Oc1c(Br)cc(Br)cc1Br [2,4,6-TBP, 2,4,6-tribromophenol] | 5.5 nM | 2.4 | 8.9 nM | 29 nM |  | 4.8e-09 M | 10 |  |  |  | 
O=C(O)C(F)(F)C(F)(F)C(F)(F)C(F)(F)C(F)(F)C(F)(F)C(F)(F)C(F)(F)C(F)(F)C(F)(F)F [PFUnDA, perfluoroundecanoic acid] |  | 0.021 |  |  | 0.002 nmol/g dust | 2.16e-05 M | 0.003 |  | 1000 nM | 3100 nM | Ki (TTR [1]; read-out: Ki): 2200 nM
O=S(=O)(O)C(F)(F)C(F)(F)C(F)(F)C(F)(F)C(F)(F)C(F)(F)C(F)(F)C(F)(F)F [PFOS, perfluorooctane sulfonic acid] |  | 0.26 |  |  | 1.201 nmol/g dust | 9.4e-07 M | 0.065 |  | 82 nM | 250 nM | Ki (TTR [1]; read-out: Ki): 160 nM
Brc1ccc(Oc2ccc(Br)cc2Br)c(Br)c1 [BDE-47, 2,2ʹ,4,4ʹ-tetrabromodiphenyl ether] | 440 nM | 0.10 | 210 nM | 1300 nM | 0.103 nmol/g dust | 3.6e-05 M | 0.0025 |  |  |  | 
O=C(O)C(F)(F)C(F)(F)C(F)(F)C(F)(F)C(F)(F)F [PFHxA, perfluorohexanoic acid] |  | 0.014 |  |  | 0.011 nmol/g dust | 8.22e-06 M |  |  | 1600 nM | 5600 nM | Ki (TTR [1]; read-out: Ki): 3400 nM
CCCOC(=O)c1ccc(O)cc1 [Propylparaben, propyl 4-hydroxybenzoate] |  | 0.0039 | 5500 nM | 19000 nM |  |  |  | 12000 nM |  |  | IC50 (TTR [2]; ref Zhang et al. 2015): 1.9e-05 M; REP, Radioactive Ligand Binding Assay data from the literature (TTR [2]; ref Zhang et al. 2015): 0.0038
O=S(=O)(O)C(F)(F)C(F)(F)C(F)(F)C(F)(F)F [PFBS, perfluorobutane sulfonic acid] |  | 0.0091 |  |  | 0.002 nmol/g dust | 1.95e-05 M | 0.003 | 5100 nM | 2300 nM | 9700 nM | 
O=S(=O)(O)C(F)(F)C(F)(F)C(F)(F)C(F)(F)C(F)(F)C(F)(F)F [PFHxS, perfluorohexane sulfonic acid] | 280 nM | 0.16 | 140 nM | 460 nM | 0.561 nmol/g dust | 7.17e-07 M | 0.085 |  |  |  | 
Oc1cc(Oc2ccc(Br)cc2Br)c(Br)cc1Br [5-OH-BDE-47, 5-OH-2,2ʹ,4,4ʹ-tetrabromodiphenyl ether] |  | 1.5 |  |  |  | 2.5e-08 M | 3 | 16 nM | 14 nM | 27 nM | 
